This note sets out measurements from PubChem BioAssay (NCI).

Structures are written as SMILES.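 Grown in 96-well plates, cells were treated for 48 hours with each compound at five concentrations. Insufficient inhibition: endpoint recorded as highest concentration tested. TGI denotes the concentration required for complete inhibition of growth.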

In one experiment the test system is SK-MEL-5 melanoma. The experiment can be described thus: NCI-60 cell line screen, 48 h.
In turn, `O=C(O)C1CC2C3CCC2C1C3=O` (stereo not given) registered a TGI above 100 µM.
Still for that read-out and setting: for `CCCCCC(=O)Nc1n[nH]nc1C(N)=O` the value was above 100 µM.
On the same count and under the same terms, for `CCOC(=O)C(c1c[nH]c2ccccc12)(c1c[nH]c2ccccc12)c1c[nH]c2ccccc12` the value was above 100 µM; for `COc1ccc(Br)c2c1CC(C(=O)O)CC2` (stereo not given), above 100 µM.
Still for that read-out and setting: for `Fc1cc(C2=C[C@H](c3ccc(Cl)cc3)NC(=S)N2)c(Cl)cc1Cl` the value was 36.1 µM; for `CCCCc1ccc(Nc2nc(Cl)c3c(ncn3COCCOC(C)=O)n2)cc1`, 36.2 µM.

Another experiment concerns HCC-2998 colon. The experiment can be described thus: NCI-60 cell line screen, 48 h.
Molecule `O=C(O)C1CC2C3CCC2C1C3=O` (stereo not given) registered a TGI above 100 µM.
Take `CCCCCC(=O)Nc1n[nH]nc1C(N)=O`: the TGI was above 100 µM.
On the same count and under the same terms, the result for `CCOC(=O)C(c1c[nH]c2ccccc12)(c1c[nH]c2ccccc12)c1c[nH]c2ccccc12` reads 45.3 µM.
`COc1ccc(Br)c2c1CC(C(=O)O)CC2` (stereo not given) had a TGI above 100 µM.
Still for that read-out and setting: the result for `Fc1cc(C2=C[C@H](c3ccc(Cl)cc3)NC(=S)N2)c(Cl)cc1Cl` reads 79.8 µM.
Still for that read-out and setting: the result for `CCCCc1ccc(Nc2nc(Cl)c3c(ncn3COCCOC(C)=O)n2)cc1` reads 34.3 µM.

In a further experiment the test system is COLO 205 colon. The experiment is described as follows: NCI-60 cell line screen, 48 h.
As for `O=C(O)C1CC2C3CCC2C1C3=O` (stereo not given), the TGI was above 100 µM.
In turn, `CCCCCC(=O)Nc1n[nH]nc1C(N)=O` came in with a TGI above 100 µM.
The same measure, in the same setting: the result for `CCOC(=O)C(c1c[nH]c2ccccc12)(c1c[nH]c2ccccc12)c1c[nH]c2ccccc12` reads 39.2 µM; that for `COc1ccc(Br)c2c1CC(C(=O)O)CC2` (stereo not given), above 100 µM.
`Fc1cc(C2=C[C@H](c3ccc(Cl)cc3)NC(=S)N2)c(Cl)cc1Cl` showed a TGI above 100 µM.
On the same count and under the same terms, for `CCCCc1ccc(Nc2nc(Cl)c3c(ncn3COCCOC(C)=O)n2)cc1` the value was 45.5 µM.

The next experiment relates to DU-145 prostate. The experiment is described as follows: NCI-60 cell line screen, 48 h.
`O=C(O)C1CC2C3CCC2C1C3=O` (stereo not given) displayed a TGI above 100 µM.
On the same count and under the same terms, the result for `CCCCCC(=O)Nc1n[nH]nc1C(N)=O` reads above 100 µM; that for `CCOC(=O)C(c1c[nH]c2ccccc12)(c1c[nH]c2ccccc12)c1c[nH]c2ccccc12`, above 100 µM; that for `COc1ccc(Br)c2c1CC(C(=O)O)CC2` (stereo not given), above 100 µM.
Still for that read-out and setting: the result for `Fc1cc(C2=C[C@H](c3ccc(Cl)cc3)NC(=S)N2)c(Cl)cc1Cl` reads above 100 µM.
On the same count and under the same terms, the result for `CCCCc1ccc(Nc2nc(Cl)c3c(ncn3COCCOC(C)=O)n2)cc1` reads 30.5 µM.

For another experiment, the system named is LOX IMVI melanoma. The experiment is described as follows: NCI-60 cell line screen, 48 h.
For `O=C(O)C1CC2C3CCC2C1C3=O` (stereo not given), the TGI was above 100 µM.
Still for that read-out and setting: the result for `CCCCCC(=O)Nc1n[nH]nc1C(N)=O` reads above 100 µM; that for `CCOC(=O)C(c1c[nH]c2ccccc12)(c1c[nH]c2ccccc12)c1c[nH]c2ccccc12`, above 100 µM.
Still for that read-out and setting: the result for `COc1ccc(Br)c2c1CC(C(=O)O)CC2` (stereo not given) reads above 100 µM; that for `Fc1cc(C2=C[C@H](c3ccc(Cl)cc3)NC(=S)N2)c(Cl)cc1Cl`, above 100 µM; that for `CCCCc1ccc(Nc2nc(Cl)c3c(ncn3COCCOC(C)=O)n2)cc1`, 34 µM.

The test system of a further experiment is SW-620 colon. The experiment can be described thus: NCI-60 cell line screen, 48 h.
`O=C(O)C1CC2C3CCC2C1C3=O` (stereo not given) had a TGI above 100 µM.
Still for that read-out and setting: the result for `CCCCCC(=O)Nc1n[nH]nc1C(N)=O` reads above 100 µM; that for `CCOC(=O)C(c1c[nH]c2ccccc12)(c1c[nH]c2ccccc12)c1c[nH]c2ccccc12`, 75.9 µM; that for `COc1ccc(Br)c2c1CC(C(=O)O)CC2` (stereo not given), above 100 µM.
The same measure, in the same setting: the result for `Fc1cc(C2=C[C@H](c3ccc(Cl)cc3)NC(=S)N2)c(Cl)cc1Cl` reads above 100 µM; that for `CCCCc1ccc(Nc2nc(Cl)c3c(ncn3COCCOC(C)=O)n2)cc1`, 41.4 µM.

The next experiment deals with HOP-92 NSCLC. The experiment is described as follows: NCI-60 cell line screen, 48 h.
`O=C(O)C1CC2C3CCC2C1C3=O` (stereo not given) came in with a TGI above 100 µM.
On the same count and under the same terms, for `CCCCCC(=O)Nc1n[nH]nc1C(N)=O` the value was above 100 µM; for `CCOC(=O)C(c1c[nH]c2ccccc12)(c1c[nH]c2ccccc12)c1c[nH]c2ccccc12`, above 100 µM; for `COc1ccc(Br)c2c1CC(C(=O)O)CC2` (stereo not given), above 100 µM.
The same measure, in the same setting: for `Fc1cc(C2=C[C@H](c3ccc(Cl)cc3)NC(=S)N2)c(Cl)cc1Cl` the value was above 100 µM; for `CCCCc1ccc(Nc2nc(Cl)c3c(ncn3COCCOC(C)=O)n2)cc1`, 43.6 µM.

For a further experiment, the system named is SN12C renal. The experiment is described as follows: NCI-60 cell line screen, 48 h.
For `O=C(O)C1CC2C3CCC2C1C3=O` (stereo not given), the TGI was above 100 µM.
On the same count and under the same terms, the result for `CCCCCC(=O)Nc1n[nH]nc1C(N)=O` reads above 100 µM.
Same read-out and setting: the result for `CCOC(=O)C(c1c[nH]c2ccccc12)(c1c[nH]c2ccccc12)c1c[nH]c2ccccc12` reads above 100 µM.
Take `COc1ccc(Br)c2c1CC(C(=O)O)CC2` (stereo not given): the TGI was above 100 µM.
On the same count and under the same terms, the result for `Fc1cc(C2=C[C@H](c3ccc(Cl)cc3)NC(=S)N2)c(Cl)cc1Cl` reads 79.6 µM; that for `CCCCc1ccc(Nc2nc(Cl)c3c(ncn3COCCOC(C)=O)n2)cc1`, 34.8 µM.

The test system of another experiment is T-47D breast. The experiment can be described thus: NCI-60 cell line screen, 48 h.
For the molecule `O=C(O)C1CC2C3CCC2C1C3=O` (stereo not given), the TGI is above 100 µM.
Still for that read-out and setting: the result for `CCCCCC(=O)Nc1n[nH]nc1C(N)=O` reads above 100 µM; that for `CCOC(=O)C(c1c[nH]c2ccccc12)(c1c[nH]c2ccccc12)c1c[nH]c2ccccc12`, 54.2 µM.
With `COc1ccc(Br)c2c1CC(C(=O)O)CC2` (stereo not given), the TGI was above 100 µM.
On the same count and under the same terms, the result for `Fc1cc(C2=C[C@H](c3ccc(Cl)cc3)NC(=S)N2)c(Cl)cc1Cl` reads above 100 µM; that for `CCCCc1ccc(Nc2nc(Cl)c3c(ncn3COCCOC(C)=O)n2)cc1`, 34.6 µM.

The next experiment concerns A549 NSCLC. The experiment is described as follows: NCI-60 cell line screen, 48 h.
On to `O=C(O)C1CC2C3CCC2C1C3=O` (stereo not given), for which the TGI is above 100 µM.
The same measure, in the same setting: for `CCCCCC(=O)Nc1n[nH]nc1C(N)=O` the value was above 100 µM; for `CCOC(=O)C(c1c[nH]c2ccccc12)(c1c[nH]c2ccccc12)c1c[nH]c2ccccc12`, above 100 µM.
For the molecule `COc1ccc(Br)c2c1CC(C(=O)O)CC2` (stereo not given), the TGI was above 100 µM.
On the same count and under the same terms, the result for `Fc1cc(C2=C[C@H](c3ccc(Cl)cc3)NC(=S)N2)c(Cl)cc1Cl` reads above 100 µM; that for `CCCCc1ccc(Nc2nc(Cl)c3c(ncn3COCCOC(C)=O)n2)cc1`, 41 µM.
